Results published in the supplement of paper PMC8671470.
± gives the standard deviation of the averaged measurements.

system: ML-2; experiment: not given; settings: 72 h
Summary of the method: (§1)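 Each of fifteen myeloid leukaemia cell lines was seeded in RPMI 1640 at a density titrated to its linear growth range. The cells were incubated for 72 h at 37 °C and 5% CO2 with compounds at five tenfold doses from 1 to 10,000 nM, in duplicate. After ATP luminescence was normalised to vehicle and to a positive control at 10 µM, four-parameter log-logistic curves were fitted. These curves gave the IC50.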

Point of comparison: `c1cc(-c2cnn3cc(-c4ccc(OCCN5CCCCC5)cc4)cnc23)ccn1` [Dorsomorphin], “IC50 (cell viability)” value 5.24 µM. Against it:
- C[C@H]1c2cccc(O)c2C(=O)C2C(=O)[C@]3(O)C(=O)C(C(N)=O)C(=O)[C@@H](N(C)C)[C@@H]3[C@@H](O)[C@@H]21 (some centres undefined) [Doxycycline] — 1.6-fold higher, 8.51 µM

system: KG-1; experiment: not given; settings: 72 h
Summary of the method: as §1

Point of comparison: `O=C(/C=C/c1ccc(O)c(O)c1)OCCc1ccccc1` [Caffeic acid phenethyl ester], “IC50 (cell viability)” value 1.1 µM. Against it:
- Cc1c(Cl)cccc1S(=O)(=O)Nc1nc(CC(=O)N2CCN(C)CC2)cs1 [BVT-2733] — higher, > 10 µM
- CCc1oc2ccccc2c1C(=O)c1cc(Br)c(O)c(Br)c1 [Benzbromarone] — higher, > 10 µM
- CCOC(=O)c1sc(NC(=O)c2ccco2)c(SC#N)c1C [CBR-5884] — higher, > 10 µM
- CCCCCOC(=O)Nc1nc(=O)n([C@@H]2O[C@H](C)[C@@H](O)[C@H]2O)cc1F [Capecitabine] — higher, > 10 µM
- Cc1ccc(-c2cc(C(F)(F)F)nn2-c2ccc(S(N)(=O)=O)cc2)cc1 [Celecoxib] — higher, > 10 µM
- O=c1c(-c2ccc(O)cc2)coc2cc(O[C@@H]3O[C@H](CO)[C@@H](O)[C@H](O)[C@H]3O)ccc12 [Daidzin] — higher, > 10 µM
- CCN(CC)C(=S)SSC(=S)N(CC)CC [Disulfiram] — 4-fold lower, 0.272 µM
- c1cc(-c2cnn3cc(-c4ccc(OCCN5CCCCC5)cc4)cnc23)ccn1 [Dorsomorphin] — higher, > 10 µM
- C[C@H]1c2cccc(O)c2C(=O)C2C(=O)[C@]3(O)C(=O)C(C(N)=O)C(=O)[C@@H](N(C)C)[C@@H]3[C@@H](O)[C@@H]21 (some centres undefined) [Doxycycline] — higher, > 10 µM

system: LAMA-84; experiment: not given; settings: 72 h
Summary of the method: as §1

Point of comparison: `c1cc(-c2cnn3cc(-c4ccc(OCCN5CCCCC5)cc4)cnc23)ccn1` [Dorsomorphin], “IC50 (cell viability)” value 6.49 µM. Against it:
- Cc1c(Cl)cccc1S(=O)(=O)Nc1nc(CC(=O)N2CCN(C)CC2)cs1 [BVT-2733] — higher, > 10 µM
- CCc1oc2ccccc2c1C(=O)c1cc(Br)c(O)c(Br)c1 [Benzbromarone] — higher, > 10 µM
- CCOC(=O)c1sc(NC(=O)c2ccco2)c(SC#N)c1C [CBR-5884] — higher, > 10 µM
- O=C(/C=C/c1ccc(O)c(O)c1)OCCc1ccccc1 [Caffeic acid phenethyl ester] — within 1.5-fold, 6.17 µM
- CCCCCOC(=O)Nc1nc(=O)n([C@@H]2O[C@H](C)[C@@H](O)[C@H]2O)cc1F [Capecitabine] — higher, > 10 µM
- Cc1ccc(-c2cc(C(F)(F)F)nn2-c2ccc(S(N)(=O)=O)cc2)cc1 [Celecoxib] — higher, > 10 µM
- O=c1c(-c2ccc(O)cc2)coc2cc(O[C@@H]3O[C@H](CO)[C@@H](O)[C@H](O)[C@H]3O)ccc12 [Daidzin] — higher, > 10 µM
- CCN(CC)C(=S)SSC(=S)N(CC)CC [Disulfiram] — higher, > 10 µM
- C[C@H]1c2cccc(O)c2C(=O)C2C(=O)[C@]3(O)C(=O)C(C(N)=O)C(=O)[C@@H](N(C)C)[C@@H]3[C@@H](O)[C@@H]21 (some centres undefined) [Doxycycline] — higher, > 10 µM

system: Mono-Mac-6; experiment: not given; settings: 72 h
Summary of the method: as §1

Point of comparison: `O=C(/C=C/c1ccc(O)c(O)c1)OCCc1ccccc1` [Caffeic acid phenethyl ester], “IC50 (cell viability)” value 3.47 µM. Against it:
- Cc1c(Cl)cccc1S(=O)(=O)Nc1nc(CC(=O)N2CCN(C)CC2)cs1 [BVT-2733] — higher, > 10 µM
- CCc1oc2ccccc2c1C(=O)c1cc(Br)c(O)c(Br)c1 [Benzbromarone] — higher, > 10 µM
- CCOC(=O)c1sc(NC(=O)c2ccco2)c(SC#N)c1C [CBR-5884] — higher, > 10 µM
- CCCCCOC(=O)Nc1nc(=O)n([C@@H]2O[C@H](C)[C@@H](O)[C@H]2O)cc1F [Capecitabine] — higher, > 10 µM
- Cc1ccc(-c2cc(C(F)(F)F)nn2-c2ccc(S(N)(=O)=O)cc2)cc1 [Celecoxib] — higher, > 10 µM
- O=c1c(-c2ccc(O)cc2)coc2cc(O[C@@H]3O[C@H](CO)[C@@H](O)[C@H](O)[C@H]3O)ccc12 [Daidzin] — higher, > 10 µM
- CCN(CC)C(=S)SSC(=S)N(CC)CC [Disulfiram] — 20-fold lower, 0.171 µM
- c1cc(-c2cnn3cc(-c4ccc(OCCN5CCCCC5)cc4)cnc23)ccn1 [Dorsomorphin] — 4.3-fold lower, 0.811 µM
- C[C@H]1c2cccc(O)c2C(=O)C2C(=O)[C@]3(O)C(=O)C(C(N)=O)C(=O)[C@@H](N(C)C)[C@@H]3[C@@H](O)[C@@H]21 (some centres undefined) [Doxycycline] — higher, > 10 µM

system: HL-60; experiment: cell viability (% survival relative to DMSO control); higher = less cytotoxic; settings: 0.001 µM; 72 h; co-treatment: AZD3965 100 nM
Summary of the method: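 Area under the curve, where listed, was derived from four-parameter log-logistic fits with drc and PharmacoGx. These fits used CellTiter-Glo viability from HL-60 cells in RPMI 1640 with 10% FBS, normalised to DMSO wells and wells holding 10 μM proteasome inhibitor. The full library was rescreened on 384-well plates in duplicate at five tenfold concentrations, 1–10,000 nM, with DMSO or 100 nM of one of three metabolic inhibitors, for 72 h at 37 °C, 5% CO2.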

Point of comparison: `C[C@H]1c2cccc(O)c2C(=O)C2C(=O)[C@]3(O)C(=O)C(C(N)=O)C(=O)[C@@H](N(C)C)[C@@H]3[C@@H](O)[C@@H]21` (some centres undefined) [Doxycycline], cell viability 92.6 ± 9.1%. Against it:
- Cc1c(Cl)cccc1S(=O)(=O)Nc1nc(CC(=O)N2CCN(C)CC2)cs1 [BVT-2733] — higher, 101.68 ± 0.086%
- CCc1oc2ccccc2c1C(=O)c1cc(Br)c(O)c(Br)c1 [Benzbromarone] — within error, 98.7 ± 1.8%
- CCOC(=O)c1sc(NC(=O)c2ccco2)c(SC#N)c1C [CBR-5884] — higher, 107.6 ± 1%
- O=C(/C=C/c1ccc(O)c(O)c1)OCCc1ccccc1 [Caffeic acid phenethyl ester] — within error, 98.9 ± 2.2%
- CCCCCOC(=O)Nc1nc(=O)n([C@@H]2O[C@H](C)[C@@H](O)[C@H]2O)cc1F [Capecitabine] — within error, 103 ± 7.9%
- Cc1ccc(-c2cc(C(F)(F)F)nn2-c2ccc(S(N)(=O)=O)cc2)cc1 [Celecoxib] — higher, 104 ± 1.8%
- O=c1c(-c2ccc(O)cc2)coc2cc(O[C@@H]3O[C@H](CO)[C@@H](O)[C@H](O)[C@H]3O)ccc12 [Daidzin] — within error, 94.4 ± 7.1%
- CCN(CC)C(=S)SSC(=S)N(CC)CC [Disulfiram] — within error, 104 ± 2.5%
- c1cc(-c2cnn3cc(-c4ccc(OCCN5CCCCC5)cc4)cnc23)ccn1 [Dorsomorphin] — within error, 101 ± 4.1%

same assay, conditions: 0.001 µM; 72 h; co-treatment: DMSO vehicle

Point of comparison: `CCOC(=O)c1sc(NC(=O)c2ccco2)c(SC#N)c1C` [CBR-5884], cell viability 104 ± 1.5%. Against it:
- Cc1c(Cl)cccc1S(=O)(=O)Nc1nc(CC(=O)N2CCN(C)CC2)cs1 [BVT-2733] — within error, 101 ± 3%
- CCc1oc2ccccc2c1C(=O)c1cc(Br)c(O)c(Br)c1 [Benzbromarone] — lower, 101 ± 1.1%
- O=C(/C=C/c1ccc(O)c(O)c1)OCCc1ccccc1 [Caffeic acid phenethyl ester] — within error, 76 ± 30%
- CCCCCOC(=O)Nc1nc(=O)n([C@@H]2O[C@H](C)[C@@H](O)[C@H]2O)cc1F [Capecitabine] — within error, 98.8 ± 8.1%
- Cc1ccc(-c2cc(C(F)(F)F)nn2-c2ccc(S(N)(=O)=O)cc2)cc1 [Celecoxib] — within error, 103 ± 1.3%
- O=c1c(-c2ccc(O)cc2)coc2cc(O[C@@H]3O[C@H](CO)[C@@H](O)[C@H](O)[C@H]3O)ccc12 [Daidzin] — lower, 96.2 ± 3.1%
- CCN(CC)C(=S)SSC(=S)N(CC)CC [Disulfiram] — lower, 100.9 ± 0.6%
- c1cc(-c2cnn3cc(-c4ccc(OCCN5CCCCC5)cc4)cnc23)ccn1 [Dorsomorphin] — lower, 99.8 ± 1.8%
- C[C@H]1c2cccc(O)c2C(=O)C2C(=O)[C@]3(O)C(=O)C(C(N)=O)C(=O)[C@@H](N(C)C)[C@@H]3[C@@H](O)[C@@H]21 (some centres undefined) [Doxycycline] — within error, 100 ± 2.7%

same assay, conditions: 0.001 µM; 72 h; co-treatment: GSK2194069 100 nM

Point of comparison: `O=C(/C=C/c1ccc(O)c(O)c1)OCCc1ccccc1` [Caffeic acid phenethyl ester], cell viability 93.3 ± 16%. Against it:
- Cc1c(Cl)cccc1S(=O)(=O)Nc1nc(CC(=O)N2CCN(C)CC2)cs1 [BVT-2733] — within error, 103.6 ± 0.74%
- CCc1oc2ccccc2c1C(=O)c1cc(Br)c(O)c(Br)c1 [Benzbromarone] — within error, 95.9 ± 1.3%
- CCOC(=O)c1sc(NC(=O)c2ccco2)c(SC#N)c1C [CBR-5884] — within error, 97.6 ± 3.5%
- CCCCCOC(=O)Nc1nc(=O)n([C@@H]2O[C@H](C)[C@@H](O)[C@H]2O)cc1F [Capecitabine] — within error, 103 ± 7%
- Cc1ccc(-c2cc(C(F)(F)F)nn2-c2ccc(S(N)(=O)=O)cc2)cc1 [Celecoxib] — within error, 101 ± 1.5%
- O=c1c(-c2ccc(O)cc2)coc2cc(O[C@@H]3O[C@H](CO)[C@@H](O)[C@H](O)[C@H]3O)ccc12 [Daidzin] — within error, 96.5 ± 3.9%
